Measurements published in ChEMBL document CHEMBL4507262, “Data for DCP probe A-1596586” (2021).

Assays:
[1] = target: Cyclin-dependent kinase-like 5 (Homo sapiens) (UniProt O76039); conditions: Compound concentration 1000.0 nM
[2] = target: Casein kinase II subunit alpha' (Homo sapiens) (UniProt P19784); conditions: Compound concentration 1000.0 nM
[3] = tested on: Epidermal growth factor receptor (Homo sapiens), P00533 [L861Q]; conditions: Compound concentration 1000.0 nM
[4] = target: Glycogen synthase kinase-3 beta (Homo sapiens) (UniProt P49841); conditions: Compound concentration 1000.0 nM
Glycogen synthase kinase-3 beta (Homo sapiens), sequence (P49841 whole entry, looked up): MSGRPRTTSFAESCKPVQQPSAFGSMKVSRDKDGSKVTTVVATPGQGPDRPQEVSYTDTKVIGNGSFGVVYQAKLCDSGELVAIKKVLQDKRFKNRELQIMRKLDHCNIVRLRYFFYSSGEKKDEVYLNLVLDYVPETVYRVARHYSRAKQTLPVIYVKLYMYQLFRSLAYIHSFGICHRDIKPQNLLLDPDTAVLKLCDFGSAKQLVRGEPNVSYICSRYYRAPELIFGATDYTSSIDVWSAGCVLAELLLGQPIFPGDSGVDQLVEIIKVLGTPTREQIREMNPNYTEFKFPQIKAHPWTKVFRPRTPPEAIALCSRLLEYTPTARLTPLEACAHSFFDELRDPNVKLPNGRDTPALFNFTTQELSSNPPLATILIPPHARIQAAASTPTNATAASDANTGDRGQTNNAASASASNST

[5] = target: Mitogen-activated protein kinase kinase kinase kinase 2 (Homo sapiens) (UniProt Q12851); conditions: Compound concentration 1000.0 nM
Mitogen-activated protein kinase kinase kinase kinase 2 (Homo sapiens), sequence (Q12851 whole entry): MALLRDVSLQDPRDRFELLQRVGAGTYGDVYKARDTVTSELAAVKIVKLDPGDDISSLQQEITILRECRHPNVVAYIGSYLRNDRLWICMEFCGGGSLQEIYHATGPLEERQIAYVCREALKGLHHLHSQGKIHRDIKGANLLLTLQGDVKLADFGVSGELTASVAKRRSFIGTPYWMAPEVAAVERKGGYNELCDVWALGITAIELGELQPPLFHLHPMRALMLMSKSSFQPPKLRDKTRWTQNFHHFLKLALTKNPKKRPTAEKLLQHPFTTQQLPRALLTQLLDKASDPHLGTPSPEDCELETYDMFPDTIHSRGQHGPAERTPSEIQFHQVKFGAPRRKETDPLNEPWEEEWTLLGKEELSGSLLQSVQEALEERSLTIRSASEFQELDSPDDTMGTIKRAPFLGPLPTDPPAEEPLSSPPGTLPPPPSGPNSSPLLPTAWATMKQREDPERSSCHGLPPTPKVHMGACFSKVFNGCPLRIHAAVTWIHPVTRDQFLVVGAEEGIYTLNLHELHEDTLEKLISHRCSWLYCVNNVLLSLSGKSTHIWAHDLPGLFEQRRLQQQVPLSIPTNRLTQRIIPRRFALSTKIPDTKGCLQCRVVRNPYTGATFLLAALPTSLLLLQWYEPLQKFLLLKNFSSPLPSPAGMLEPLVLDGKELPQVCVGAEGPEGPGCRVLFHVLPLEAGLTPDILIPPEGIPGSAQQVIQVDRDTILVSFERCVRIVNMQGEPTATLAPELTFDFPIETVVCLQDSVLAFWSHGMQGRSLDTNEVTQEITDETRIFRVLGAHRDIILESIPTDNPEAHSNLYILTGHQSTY

[6] = target: Serine/threonine-protein kinase PAK 2 (Homo sapiens) (UniProt Q13177); conditions: Compound concentration 1000.0 nM
[7] = target: Phosphatidylinositol 4-kinase beta (Homo sapiens) (UniProt Q9UBF8); conditions: Compound concentration 1000.0 nM
Phosphatidylinositol 4-kinase beta (Homo sapiens), sequence (Q9UBF8 2-816 limits assumed): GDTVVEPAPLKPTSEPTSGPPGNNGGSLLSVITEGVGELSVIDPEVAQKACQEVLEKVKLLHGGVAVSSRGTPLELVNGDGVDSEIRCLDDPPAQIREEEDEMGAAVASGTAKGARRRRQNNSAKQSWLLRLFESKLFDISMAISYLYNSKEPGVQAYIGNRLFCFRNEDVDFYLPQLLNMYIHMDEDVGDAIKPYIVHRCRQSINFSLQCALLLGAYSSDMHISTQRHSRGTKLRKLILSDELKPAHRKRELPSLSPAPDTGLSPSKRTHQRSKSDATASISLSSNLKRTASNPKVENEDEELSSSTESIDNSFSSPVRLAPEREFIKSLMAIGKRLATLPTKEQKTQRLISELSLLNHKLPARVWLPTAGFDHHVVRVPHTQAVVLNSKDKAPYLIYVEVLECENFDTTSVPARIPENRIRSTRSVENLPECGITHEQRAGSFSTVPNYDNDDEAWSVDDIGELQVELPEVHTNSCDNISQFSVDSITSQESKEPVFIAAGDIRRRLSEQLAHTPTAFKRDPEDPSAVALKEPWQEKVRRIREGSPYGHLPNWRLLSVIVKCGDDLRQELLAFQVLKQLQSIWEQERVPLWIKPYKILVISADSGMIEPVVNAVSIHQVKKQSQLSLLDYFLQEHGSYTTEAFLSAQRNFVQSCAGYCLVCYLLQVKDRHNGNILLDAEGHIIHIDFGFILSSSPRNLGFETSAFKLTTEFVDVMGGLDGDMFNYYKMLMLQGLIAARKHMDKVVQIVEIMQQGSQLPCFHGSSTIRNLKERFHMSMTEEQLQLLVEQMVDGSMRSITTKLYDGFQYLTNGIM

[8] = target: Phosphatidylinositol 5-phosphate 4-kinase type-2 beta (Homo sapiens) (UniProt P78356); conditions: Compound concentration 1000.0 nM
Phosphatidylinositol 5-phosphate 4-kinase type-2 beta (Homo sapiens), sequence (P78356 whole entry): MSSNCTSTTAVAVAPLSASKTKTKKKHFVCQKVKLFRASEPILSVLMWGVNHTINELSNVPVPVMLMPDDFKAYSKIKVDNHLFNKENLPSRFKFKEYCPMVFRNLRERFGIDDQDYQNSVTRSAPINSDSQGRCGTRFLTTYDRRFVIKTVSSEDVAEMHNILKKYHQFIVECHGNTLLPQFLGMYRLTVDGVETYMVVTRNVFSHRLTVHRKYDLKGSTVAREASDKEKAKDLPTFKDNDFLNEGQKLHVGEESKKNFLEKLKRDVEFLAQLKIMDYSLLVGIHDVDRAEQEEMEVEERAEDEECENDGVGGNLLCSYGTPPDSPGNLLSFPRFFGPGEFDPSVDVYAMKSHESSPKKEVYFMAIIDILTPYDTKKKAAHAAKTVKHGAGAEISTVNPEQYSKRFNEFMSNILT

[9] = target: Serine/threonine-protein kinase PRP4 homolog (Homo sapiens) (UniProt Q13523); conditions: Compound concentration 1000.0 nM
[10] = target: Ribosomal protein S6 kinase alpha-6 (Homo sapiens) (UniProt Q9UK32); conditions: Compound concentration 1000.0 nM
[11] = target: Proto-oncogene tyrosine-protein kinase Src (Homo sapiens) (UniProt P12931); conditions: Compound concentration 1000.0 nM
Proto-oncogene tyrosine-protein kinase Src (Homo sapiens), sequence (P12931 2-536 limits assumed): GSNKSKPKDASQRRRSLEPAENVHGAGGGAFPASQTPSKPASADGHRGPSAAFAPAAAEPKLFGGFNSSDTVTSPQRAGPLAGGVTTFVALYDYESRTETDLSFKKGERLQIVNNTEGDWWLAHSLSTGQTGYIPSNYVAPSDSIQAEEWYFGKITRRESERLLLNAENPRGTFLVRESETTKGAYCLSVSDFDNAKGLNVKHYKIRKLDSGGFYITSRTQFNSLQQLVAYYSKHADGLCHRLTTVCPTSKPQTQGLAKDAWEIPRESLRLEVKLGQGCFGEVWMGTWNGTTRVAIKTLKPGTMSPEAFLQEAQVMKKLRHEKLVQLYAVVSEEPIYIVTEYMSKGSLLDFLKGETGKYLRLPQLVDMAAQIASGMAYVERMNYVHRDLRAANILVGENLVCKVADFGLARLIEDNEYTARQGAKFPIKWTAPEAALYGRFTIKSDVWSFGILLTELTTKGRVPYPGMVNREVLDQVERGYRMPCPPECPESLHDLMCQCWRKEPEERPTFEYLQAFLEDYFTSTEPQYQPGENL

[12] = target: T1, 5-hydroxytryptamine receptor 2C (Homo sapiens) (UniProt P28335); conditions: Compound concentration 10.0 uM
T1 sequence (whole entry): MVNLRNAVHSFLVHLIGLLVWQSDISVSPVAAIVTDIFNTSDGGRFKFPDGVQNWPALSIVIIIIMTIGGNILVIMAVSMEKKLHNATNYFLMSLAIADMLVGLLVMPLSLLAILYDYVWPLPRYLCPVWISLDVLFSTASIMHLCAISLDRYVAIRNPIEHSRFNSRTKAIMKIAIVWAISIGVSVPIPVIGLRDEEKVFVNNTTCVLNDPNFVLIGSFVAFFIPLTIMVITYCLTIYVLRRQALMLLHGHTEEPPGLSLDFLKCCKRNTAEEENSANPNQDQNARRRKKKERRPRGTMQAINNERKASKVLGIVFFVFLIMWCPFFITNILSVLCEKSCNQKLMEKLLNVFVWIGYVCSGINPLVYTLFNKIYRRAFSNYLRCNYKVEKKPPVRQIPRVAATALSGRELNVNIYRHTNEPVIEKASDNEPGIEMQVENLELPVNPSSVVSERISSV

[13] = target: 5-hydroxytryptamine receptor 5A (Homo sapiens) (UniProt P47898); conditions: Compound concentration 10.0 uM
[14] = target: 5-hydroxytryptamine receptor 6 (Homo sapiens) (UniProt P50406); conditions: Compound concentration 10.0 uM
[15] = target: Sodium-dependent dopamine transporter (Homo sapiens) (UniProt Q01959); conditions: Compound concentration 10.0 uM
[16] = target: Mu-type opioid receptor (Homo sapiens) (UniProt P35372); conditions: Compound concentration 10.0 uM
Mu-type opioid receptor (Homo sapiens), sequence (P35372 whole entry): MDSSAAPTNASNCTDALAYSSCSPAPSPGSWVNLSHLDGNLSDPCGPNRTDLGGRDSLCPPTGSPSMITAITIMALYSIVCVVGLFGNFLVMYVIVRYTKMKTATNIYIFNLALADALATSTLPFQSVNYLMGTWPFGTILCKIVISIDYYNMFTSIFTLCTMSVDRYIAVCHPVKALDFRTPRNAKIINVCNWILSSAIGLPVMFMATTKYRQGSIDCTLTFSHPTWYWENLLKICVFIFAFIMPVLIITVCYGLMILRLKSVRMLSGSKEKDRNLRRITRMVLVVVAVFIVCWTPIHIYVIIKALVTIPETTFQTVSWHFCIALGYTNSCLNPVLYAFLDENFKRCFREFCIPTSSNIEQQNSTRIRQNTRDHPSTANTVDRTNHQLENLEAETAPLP

[17] = target: T2, Muscarinic acetylcholine receptor M2 (Homo sapiens) (UniProt P08172); conditions: Compound concentration 10.0 uM
T2 sequence (whole entry): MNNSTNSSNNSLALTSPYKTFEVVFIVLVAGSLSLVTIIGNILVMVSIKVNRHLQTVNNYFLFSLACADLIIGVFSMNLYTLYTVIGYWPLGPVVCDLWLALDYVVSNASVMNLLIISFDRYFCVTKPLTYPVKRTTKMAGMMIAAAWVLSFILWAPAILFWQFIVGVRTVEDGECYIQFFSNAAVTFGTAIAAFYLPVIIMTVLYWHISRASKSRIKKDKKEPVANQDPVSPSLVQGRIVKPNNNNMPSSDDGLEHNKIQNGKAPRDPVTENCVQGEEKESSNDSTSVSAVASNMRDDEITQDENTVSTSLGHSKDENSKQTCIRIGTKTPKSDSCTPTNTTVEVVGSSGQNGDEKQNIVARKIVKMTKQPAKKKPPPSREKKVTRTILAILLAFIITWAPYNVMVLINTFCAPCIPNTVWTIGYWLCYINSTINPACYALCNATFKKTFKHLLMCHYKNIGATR

[18] = target: 5-hydroxytryptamine receptor 1E (Homo sapiens) (UniProt P28566); conditions: Compound concentration 10.0 uM
[19] = target: Sodium-dependent serotonin transporter (Homo sapiens) (UniProt P31645); conditions: Compound concentration 10.0 uM
[20] = target: Histamine H3 receptor (Homo sapiens) (UniProt Q9Y5N1); conditions: Compound concentration 10.0 uM

Cyclin-dependent kinase-like 5 (Homo sapiens), sequence (O76039 whole entry): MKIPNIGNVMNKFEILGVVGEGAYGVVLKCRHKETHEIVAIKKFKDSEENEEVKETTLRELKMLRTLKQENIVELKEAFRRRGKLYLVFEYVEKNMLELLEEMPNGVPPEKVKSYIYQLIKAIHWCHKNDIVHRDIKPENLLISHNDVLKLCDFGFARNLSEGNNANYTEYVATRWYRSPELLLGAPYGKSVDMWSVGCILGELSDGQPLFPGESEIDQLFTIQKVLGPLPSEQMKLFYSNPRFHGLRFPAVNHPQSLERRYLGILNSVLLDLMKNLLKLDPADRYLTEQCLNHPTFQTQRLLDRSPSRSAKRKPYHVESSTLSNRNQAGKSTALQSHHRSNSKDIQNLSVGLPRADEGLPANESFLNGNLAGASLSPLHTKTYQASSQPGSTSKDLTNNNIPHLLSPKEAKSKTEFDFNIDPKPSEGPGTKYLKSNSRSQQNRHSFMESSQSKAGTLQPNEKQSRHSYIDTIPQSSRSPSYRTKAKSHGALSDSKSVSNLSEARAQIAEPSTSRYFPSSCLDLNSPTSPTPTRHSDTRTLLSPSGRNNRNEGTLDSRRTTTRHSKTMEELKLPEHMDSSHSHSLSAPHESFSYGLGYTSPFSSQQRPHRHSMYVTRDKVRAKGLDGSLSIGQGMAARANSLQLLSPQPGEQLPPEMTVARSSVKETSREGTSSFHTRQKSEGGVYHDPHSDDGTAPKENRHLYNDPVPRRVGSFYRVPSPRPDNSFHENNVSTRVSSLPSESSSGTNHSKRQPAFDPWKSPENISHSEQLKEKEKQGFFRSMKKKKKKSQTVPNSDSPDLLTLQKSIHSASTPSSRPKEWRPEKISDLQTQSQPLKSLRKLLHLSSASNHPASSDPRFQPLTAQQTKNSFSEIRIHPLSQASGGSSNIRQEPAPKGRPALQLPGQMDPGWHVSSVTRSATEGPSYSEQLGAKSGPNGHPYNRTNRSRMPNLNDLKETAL
Casein kinase II subunit alpha' (Homo sapiens), sequence (P19784 whole entry, looked up): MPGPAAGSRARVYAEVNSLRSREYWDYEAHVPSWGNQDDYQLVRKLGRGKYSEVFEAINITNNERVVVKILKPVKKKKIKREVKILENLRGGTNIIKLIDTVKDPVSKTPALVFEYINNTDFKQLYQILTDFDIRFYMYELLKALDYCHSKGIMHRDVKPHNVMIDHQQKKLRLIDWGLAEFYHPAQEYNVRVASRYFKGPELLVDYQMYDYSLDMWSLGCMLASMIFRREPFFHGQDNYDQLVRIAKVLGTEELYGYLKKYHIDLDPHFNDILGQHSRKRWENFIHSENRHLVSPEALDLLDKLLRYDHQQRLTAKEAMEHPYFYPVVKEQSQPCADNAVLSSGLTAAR

COc1ccc2c(c1)O[C@@H](c1ccc(OC)c(OC)c1)C[C@H]2NC(=O)C1(c2ccc3c(c2)OC(F)(F)O3)CC1 [A-1596586]
inactive: residual activity [1] 85% | residual activity [2] 87% | residual activity [3] 100% | residual activity [4] 92% | residual activity [5] 87% | residual activity [6] 100% | residual activity [7] 73% | residual activity [8] 100% | residual activity [9] 83% | residual activity [10] 84% | residual activity [11] 100% | inhibition [12] -2.28% | inhibition [13] -7.95% | inhibition [14] -7.58% | inhibition [15] 6.33% | inhibition [16] 6.01% | inhibition [17] -9.38%

COc1ccc2c(c1)O[C@H](c1ccc(OC)c(OC)c1)C[C@@H]2NC(=O)C1(c2ccc3c(c2)OC(F)(F)O3)CC1 [A-1596584]
inactive: residual activity [1] 100% | residual activity [2] 100% | residual activity [3] 100% | residual activity [4] 100% | residual activity [5] 99% | residual activity [6] 100% | residual activity [7] 81% | residual activity [8] 80% | residual activity [9] 56% | residual activity [10] 87% | residual activity [11] 100% | inhibition [18] 1.27% | inhibition [19] 5.75% | inhibition [16] 4.18% | inhibition [20] 10.4%
